Assay results published in patent US9902714B2, “Quinoxaline derivatives useful as FGFR kinase modulators” (ASTEX THERAPEUTICS LTD, priority 2014, dated 2018).

Assays:
FGFR4 = FGFR4 (Homo sapiens (Human), UniProt P22455); assay: Enzyme binding assay (KINOMEscan) FGFR4
VEGFR2 = VEGFR2 (Homo sapiens (Human), UniProt P35968); assay: Enzyme binding assay (KINOMEscan) VEGFR2
VEGFR2, sequence (P35968 20-1356): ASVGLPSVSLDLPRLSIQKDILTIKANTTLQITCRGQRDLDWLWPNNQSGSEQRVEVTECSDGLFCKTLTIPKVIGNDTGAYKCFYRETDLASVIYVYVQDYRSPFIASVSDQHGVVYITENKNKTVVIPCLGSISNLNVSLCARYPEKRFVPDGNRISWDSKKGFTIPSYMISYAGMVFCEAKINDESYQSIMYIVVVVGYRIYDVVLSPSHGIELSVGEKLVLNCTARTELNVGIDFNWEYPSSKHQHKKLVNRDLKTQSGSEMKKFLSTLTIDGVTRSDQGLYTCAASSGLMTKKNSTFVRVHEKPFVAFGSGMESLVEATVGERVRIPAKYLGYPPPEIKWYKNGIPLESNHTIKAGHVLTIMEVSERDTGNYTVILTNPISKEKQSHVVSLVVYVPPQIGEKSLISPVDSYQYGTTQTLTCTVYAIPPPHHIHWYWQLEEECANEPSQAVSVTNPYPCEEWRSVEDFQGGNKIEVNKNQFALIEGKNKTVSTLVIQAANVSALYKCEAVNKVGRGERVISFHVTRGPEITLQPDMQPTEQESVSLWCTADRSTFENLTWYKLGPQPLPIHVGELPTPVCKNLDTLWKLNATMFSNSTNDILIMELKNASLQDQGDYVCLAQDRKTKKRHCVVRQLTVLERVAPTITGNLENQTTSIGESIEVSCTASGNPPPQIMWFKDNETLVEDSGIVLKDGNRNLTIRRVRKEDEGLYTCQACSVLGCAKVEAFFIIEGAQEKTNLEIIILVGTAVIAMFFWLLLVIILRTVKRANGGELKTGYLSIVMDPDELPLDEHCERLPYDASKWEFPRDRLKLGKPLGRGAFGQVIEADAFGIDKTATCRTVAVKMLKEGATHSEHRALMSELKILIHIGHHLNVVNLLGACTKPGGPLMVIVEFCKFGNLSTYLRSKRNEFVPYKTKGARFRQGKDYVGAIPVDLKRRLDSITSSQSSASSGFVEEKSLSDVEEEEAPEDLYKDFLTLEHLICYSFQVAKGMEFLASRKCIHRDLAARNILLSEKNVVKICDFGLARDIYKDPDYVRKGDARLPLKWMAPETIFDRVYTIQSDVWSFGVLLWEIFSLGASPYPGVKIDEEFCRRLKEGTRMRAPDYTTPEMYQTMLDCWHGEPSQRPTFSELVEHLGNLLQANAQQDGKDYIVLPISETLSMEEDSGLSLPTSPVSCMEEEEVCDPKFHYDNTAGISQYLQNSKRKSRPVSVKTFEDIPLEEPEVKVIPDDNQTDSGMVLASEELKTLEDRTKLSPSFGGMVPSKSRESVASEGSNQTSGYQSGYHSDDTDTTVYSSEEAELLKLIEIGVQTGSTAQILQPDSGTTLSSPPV

FGFR4, sequence (P22455 22-802): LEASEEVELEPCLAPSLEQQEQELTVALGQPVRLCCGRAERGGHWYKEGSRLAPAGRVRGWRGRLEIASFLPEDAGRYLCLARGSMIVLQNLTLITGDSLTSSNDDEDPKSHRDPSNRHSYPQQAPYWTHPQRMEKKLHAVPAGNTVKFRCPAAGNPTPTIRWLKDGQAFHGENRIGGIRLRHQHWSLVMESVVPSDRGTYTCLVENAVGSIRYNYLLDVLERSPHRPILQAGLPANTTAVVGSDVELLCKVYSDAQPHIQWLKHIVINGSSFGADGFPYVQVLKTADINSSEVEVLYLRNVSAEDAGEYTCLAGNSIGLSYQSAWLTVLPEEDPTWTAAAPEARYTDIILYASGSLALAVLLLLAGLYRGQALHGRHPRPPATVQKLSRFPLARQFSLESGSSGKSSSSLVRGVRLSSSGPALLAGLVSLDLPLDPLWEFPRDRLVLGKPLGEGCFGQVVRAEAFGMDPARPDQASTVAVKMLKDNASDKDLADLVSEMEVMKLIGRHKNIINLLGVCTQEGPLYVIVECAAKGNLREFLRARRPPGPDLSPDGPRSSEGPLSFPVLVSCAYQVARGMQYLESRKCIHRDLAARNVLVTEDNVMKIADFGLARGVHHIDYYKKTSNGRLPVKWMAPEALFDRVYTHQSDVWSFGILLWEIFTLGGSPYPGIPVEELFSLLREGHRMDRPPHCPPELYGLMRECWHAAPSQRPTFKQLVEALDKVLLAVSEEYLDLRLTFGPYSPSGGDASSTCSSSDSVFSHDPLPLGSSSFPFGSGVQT

| Structure (SMILES) | Kd (FGFR4) [nM] | Kd (VEGFR2) [nM] |
| --- | --- | --- |
| COc1cc(OC)c2c(c1)N(c1ccc3ncc(-c4cnn(C)c4)nc3c1)CCCN(C(C)C)C2 [Compound 9] | 355 | 922 |
| COc1cc(O)cc2c1CN(C(C)C)CCN2c1ccc2ncc(-c3cnn(C)c3)nc2c1 [Compound 4] | > 3000 | > 3000 |
| COc1cc(O)c2c(c1)N(c1ccc3ncc(-c4cnn(C)c4)nc3c1)CCN(C(C)C)C2 [Compound 3] | 1900 | > 3000 |
| CCn1cc(-c2cnc3ccc(N4CCN(C)Cc5c(OC)cc(OC)cc54)cc3n2)cn1 [Compound 6] | > 3000 | > 3000 |
| CCn1cc(-c2cnc3ccc(N4CCN(C(C)C)Cc5c(OC)cc(OC)cc54)cc3n2)cn1 [Compound 7] | 230 | 1700 |
| COc1cc(OC)c2c(c1)N(c1ccc3ncc(-c4cn[nH]c4)nc3c1)CCN(C(C)C)C2 [Compound 2] | 68 | 741 |
